This note sets out measurements from publication PMC4910235, “Selenophene and thiophene-core estrogen receptor ligands that inhibit motility and development of parasitic stages of Haemonchus contortus” (Parasites & Vectors, 2016).

Where two headings read alike, the source gives them in different places.

Test [1] concerns development of xL3s to L4s of H. contortus. Description: L4 development assay (xL3 to L4). Format: cell-based. The settings on record: Haemonchus contortus, 168 h, read-out: L4 development (IC50s in μM). The procedure:
The selenophene and thiophene-core ligands (n = 74) (Additional file 1) were screened at a concentration of 20 μM on exsheathed third-stage larvae (xL3s) of H. contortus in 96-well microculture plates (cat. no. 3635; Corning 3650, Life Sciences, Corning, USA) using relevant control compounds (i.e. moxidectin and monepantel), as described previously. In brief, compounds were dissolved to a stock concentration of 10 mM in either dimethyl sulfoxide (DMSO) or methanol (Sigma-Adrich Scientific, St. Louis, USA). These ligands were then individually diluted to the final concentration of 20 μM using Luria Bertani medium (LB) supplemented with 100 IU/ml of penicillin, 100 μg/ml of streptomycin and 2.5 μg/ml of amphotericin (LB*). Compounds were dispensed (in triplicate) into the wells of a 96-well microculture plate using a multichannel pipette. In addition, the negative controls (LB*, LB* + 0.5 % solvent; six wells each), and positive controls (20 μM of monepantel; Zolvix, Novartis Animal Health, Basel, Switzerland and 20 μM of moxidectin; Cydectin, Virbac, Carros, France; triplicate wells) and xL3s (~300/well) were dispensed into wells of the plate using an automated multichannel pipette (Viaflo Assist/II, Integra Biosciences, Zizers, Switzerland). Following a 72 h incubation at 38 °C and 10 % CO2, a video recording (5 s) was taken of each well of the 96-well microculture plate (containing xL3s) using a greyscale camera (Rolera Bolt CMOS, Qimaging Scientific, Surrey, Canada) and a motorised X-Y axis stage (BioPoint 2, Ludl Electronics Products, Hawthorne, USA). Individual videos were processed to calculate a motility index (MI) using an algorithm described previously. MIs were normalised to the negative and positive controls (to remove plate-to-plate variation) using the program Prism (v.6 GraphPad Software, USA). Z’-scores were calculated to validate the performance of the screening assay; reliable assays achieve Z’-scores of between 0.5 and 1 [28]. A compound was recorded as having an activity if it reduced xL3 motility by ≥ 70 % following incubation for 72 h. […] Compounds that reduced the motility of xL3s were also tested for their ability to inhibit the motility of L4s (same protocol as for xL3s) and/or to affect the development of xL3s to L4s. Following the measurement of L4 motility, larvae were re-incubated for 4 more days and fixed with 1 % iodine (50 μl). Then, L4 development was assessed based on the presence of a well-developed mouth/pharynx using a light microscope and expressed as a percentage of the total number of larvae examined (n = 30).
All assays (to assess xL3 motility, L4 development and L4 motility) were performed in triplicate, three times, on separate days.

In test [2] the test system is xL3 stage of H. contortus. In words: Scanning electron microscopy of treated xL3s. In kind it is cell-based, Haemonchus contortus. The settings on record: 100 μM, 24 h. The procedure:
SEM was used to assess whether compounds that reduced motility by ≥ 70 % caused structural damage to the larval stages. The xL3s and L4s were cultivated as described previously. Compounds were diluted to a final concentration of 100 μM in LB*, and 50 μl were transferred to wells of a 96-well microculture plate; six wells were used for each treatment and for the negative control which contained LB* and 1 % methanol (AR1115-P2.5 L, RCI; Labscan Limited). The xL3s and L4s were resuspended in LB* at a density of ~6,000 per ml, and 50 μl were transferred into individual wells. Compounds were incubated with the larvae for 24 h at 38 °C and 10 % CO2. Following incubation, for each treatment, the larvae from each of the six wells were pooled into 1.5 ml Eppendorf tubes, washed 3 times in 0.9 % saline at 9,000 g and resuspended in 1 ml of phosphate-buffered saline (PBS). Subsequently, the larvae were fixed in 2.5 % glutaraldehyde in PBS for 2 h at room temperature, rinsed three times in PBS for 15 min, and then post-fixed in 1 % osmium tetroxide for 2 h at room temperature. Fixed larvae were rinsed again 3 times in PBS for 15 min. Then, aliquots of concentrated larvae (200 μl) were incubated on polyethyleneimine (PEI)-coated glass coverslips (pre-prepared by smearing 22 mm square glass coverslips with a 0.1 % solution of PEI and dried by heat under a cool flame). Following this incubation, the excess supernatant was removed, and the coverslips with adhered nematodes were dehydrated in increasing concentrations of ethanol (10, 30, 50, 70, 90 and 100 %) in water for 30 min. The coverslips were dried in a critical point dryer (EM CPD030, Leica, Wetzlar, Germany) and mounted on to aluminium stubs (25 mm) with double-sided carbon tabs. The coverslips were then coated with gold using a Xenosput sputter coater (Dynavac, Australia). The larvae on the coverslips were imaged using a field-emission scanning electron microscope (XL30 Philips, Netherlands) at 2.0 kV using a spot size of two; 12 representative images were taken of each sample.

Regarding `Oc1ccc(-c2cscc2-c2ccc(O)cc2Cl)c(Cl)c1` [MJ-17], the IC50 in test [1] (7 days) worked out at 13.7 µM. Moreover, the “structural damage of xL3s by SEM” value in test [2] was “no structural damage”.
`Cc1cc(O)ccc1-c1ccc(-c2ccc(O)cc2F)s1` [MJ-22]: the IC50 in test [1] (7 days) was 10.5 µM. Moreover, the “structural damage of xL3s by SEM” value in test [2] is “no structural damage”.
With `C[C@](C#N)(COc1cc(C#N)ccc1C(F)(F)F)NC(=O)c1ccc(SC(F)(F)F)cc1` [Monepantel, reference compound], the IC50 in test [1] (7 days) was determined as 0.4 µM.
On the same count and under the same terms, as for `CO/N=C1\C[C@]2(C[C@@H]3C[C@@H](C/C=C(\C)C[C@@H](C)/C=C/C=C4\CO[C@@H]5[C@H](O)C(C)=C[C@@H](C(=O)O3)[C@]45O)O2)O[C@H](/C(C)=C/C(C)C)[C@H]1C` [Moxidectin, reference compound], the figure is 12.3 µM.
Regarding `Oc1ccc(-c2ccc(-c3ccc(O)cc3Cl)[se]2)c(Cl)c1` [WZY-2], in test [1], the IC50 was 12.2 µM. The “structural damage of xL3s by SEM” value in test [2] is “no structural damage”.
